For two molecules, burst frequency, firing and mean firing rate results are on record in patent US20260071187A1, “MOLECULARLY CLEAVABLE BIOINK FORMULATION” (THE BRIGHAM AND WOMEN'S HOSPITAL, INC., priority 2022, published 2026).

The test system of one assay is NMDA receptor. Nature of the assay: MEA recording with pharmacological intervention (D-APV). It counts as cell-based, human. The following applies: D-APV 50 μM (FIG. 8g legend), Hase-1000 samples at week 4, vs DMSO. The method, then:
MEA recording of 3D-bioprinted mini-brains was performed from week 1 to week 4 after differentiation (day 10 to day 31 after digestion). The samples containing SNaPs were plated on Geltrex-coated 12-well MEA plates (Axion Biosystems, USA) in the differentiation medium. The samples were fed 2-3 times a week with partial medium change. Neuronal activities were measured every week using the Maestro 12-well MEA plate system (Axion Biosystems) for 5 min. After 4 weeks of culture in MEA plate, synaptic contents were tested using pharmacological inhibitors of neurotransmitter receptors. […] The samples were incubated for 5-10 min, and neuronal activities were assessed again for 5 min. All the MEA data were analyzed using the Axion Integrated Studio 2.4.2 and the Neural Metric Tool (Axion Biosystems).

The subject of a further assay is AMPA receptor. Nature of the assay: MEA recording with pharmacological intervention (NBQX). It counts as cell-based, human. As to conditions: NBQX 10 μM, Hase-1000 samples at week 4, vs DMSO. Here is the method: MEA recording of 3D-bioprinted mini-brains was performed from week 1 to week 4 after differentiation (day 10 to day 31 after digestion). The samples containing SNaPs were plated on Geltrex-coated 12-well MEA plates (Axion Biosystems, USA) in the differentiation medium. The samples were fed 2-3 times a week with partial medium change. Neuronal activities were measured every week using the Maestro 12-well MEA plate system (Axion Biosystems) for 5 min. After 4 weeks of culture in MEA plate, synaptic contents were tested using pharmacological inhibitors of neurotransmitter receptors. Specifically, neuronal activity was measured for 5 min by adding DMSO control before adding 10 μM of NBQX (Abcam) or 10 μM of D-APV (Abcam). The samples were incubated for 5-10 min, and neuronal activities were assessed again for 5 min. All the MEA data were analyzed using the Axion Integrated Studio 2.4.2 and the Neural Metric Tool (Axion Biosystems).

For the molecule `N[C@H](CCCP(=O)(O)O)C(=O)O` [D-APV, D-2-amino-5-phosphonovaleric acid], in the assay on NMDA receptor, the burst frequency entry is “significantly reduced” and the firing entry is given as “significantly reduced”.

On to `NS(=O)(=O)c1cccc2c1c([N+](=O)[O-])cc1nc(O)c(O)nc12` [NBQX, 2,3-dihydroxy-6-nitro-7-sulfamoyl-benzo(F)quinoxaline], for which, in the assay on AMPA receptor, the burst frequency result is on record as “significantly reduced” and the mean firing rate result is given as “significantly reduced”.
